Measurements as given in patent publication US6902881B2, “Compounds and methods for regulating cell differentiation” (priority 2000, dated 2005).
Values joined by “and” are separate entries in the source; they are usually repeats but may differ in a detail not shown here. Identical values can stand only once.

How the values were obtained:
[1] = tested on: thyroid cancer (Th) cells; assay: Proliferation of thyroid carcinoma cells; assay type: cell-based, human
[2] = molecular target: T1, aryl hydrocarbon receptor (AhR) (Homo sapiens, UniProt P35869); conditions: μM range / concentrations used here (Phelan 1998); cited from earlier work
T1 sequence (P35869 11-848): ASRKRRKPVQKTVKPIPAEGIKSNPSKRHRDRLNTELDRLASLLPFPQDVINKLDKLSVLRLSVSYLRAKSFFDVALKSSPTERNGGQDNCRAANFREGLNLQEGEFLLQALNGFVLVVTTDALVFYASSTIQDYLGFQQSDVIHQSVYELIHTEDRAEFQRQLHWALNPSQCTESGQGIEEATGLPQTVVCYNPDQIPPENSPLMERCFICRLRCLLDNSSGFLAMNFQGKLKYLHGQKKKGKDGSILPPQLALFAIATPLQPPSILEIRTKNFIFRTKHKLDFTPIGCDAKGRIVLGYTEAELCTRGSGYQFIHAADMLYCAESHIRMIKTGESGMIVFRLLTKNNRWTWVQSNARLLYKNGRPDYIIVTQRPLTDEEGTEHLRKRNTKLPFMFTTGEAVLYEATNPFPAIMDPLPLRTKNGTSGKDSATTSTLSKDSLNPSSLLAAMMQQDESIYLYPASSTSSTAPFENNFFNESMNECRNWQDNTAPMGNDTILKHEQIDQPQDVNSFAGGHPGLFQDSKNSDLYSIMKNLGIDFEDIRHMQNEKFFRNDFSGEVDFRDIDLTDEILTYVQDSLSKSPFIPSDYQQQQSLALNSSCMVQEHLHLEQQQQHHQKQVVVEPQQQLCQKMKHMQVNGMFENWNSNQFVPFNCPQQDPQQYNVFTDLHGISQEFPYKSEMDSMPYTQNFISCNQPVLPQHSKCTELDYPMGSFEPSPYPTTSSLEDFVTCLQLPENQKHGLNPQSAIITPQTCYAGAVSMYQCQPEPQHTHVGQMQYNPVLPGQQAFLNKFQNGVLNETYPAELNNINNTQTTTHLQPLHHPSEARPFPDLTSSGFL

HT29 colon cancer cells = assay: Cellular proliferation and viability of HT29 colon cancer cells; assay type: cell-based, human
Procedure: Cell Culture Conditions. Human HT 29 colon cancer cells were purchased from the American Type Culture Collection. Cells were maintained in Dulbecco's Modified Eagle's Medium (DME) supplemented with 5% heat-inactivated fetal bovine serum, 2 mM glutamine, and antibiotics (DME/5%). All cell lines were incubated in a humidified 5% CO2/air environment. They were maintained at 37° C. in 5% CO2 covered in aluminum foil to prevent exposure to the light. A total of 1×10^6 cells were incubated per flask and allowed to attach overnight. Media was changed every third day. Cell counts were performed on a Coulter Counter following detachment of cells by standard trypsinization procedures. […] The period of exposure was followed by incubation in the absence of biliverdine. Cell numbers were monitored until proliferation resumed. The production of CEA and alkaline phosphatase was measured as described below.
The HT29 colon cancer cells were incubated with different concentrations of biliverdine and their response studied to identify the concentration ranges required to elicit a biological and/or a toxicological response (Table III).

T-lymphoblast (LT) cells = assay: Proliferation of T-lymphoblast cells; assay type: cell-based, mouse
[3] = tested on: Colon Adenocarcinoma (HT 29) cells; assay: Cellular triacyl glycerol (TAG) content, colon adenocarcinoma; assay type: cell-based, human; conditions: biliverdin 4 × 10^−7 M
Procedure: Expression of differentiation markers. Carcinoembryogenic antigen in cell supernatants collected each three days was assayed by standard ELISA determinations using an IMX assay for quantitative measurement of the antigen. Cellular triacyl glycerol content was measured spectrophotometrically by enzymatic hydrolysis and analysis of the amount of glycerol released using a standard assay, Triglyceride (INT) 10 (Sigma Diagnostics). Cellular alkaline phosphatase activity was determined by measuring the fluorescence change induced by the hydrolysis of 4-methylumbelliferylphosphate. The fluorescence is detected at 450 nm with an excitation of 365 nm, using a Jobin Ivon-Spex Fluoro Max-2 fluorimeter. The alkaline phosphatase activity detected was expressed in units of μmol/mg protein/min.

[4] = tested on: control fertilized oocytes unexposed to UV light; assay: Development of control embryos unexposed to UV light incubated with the compounds (dysmorphogen test); conditions: control fertilized oocytes unexposed to UV light incubated with the compound
Procedure: (§1) Several hundred spawned eggs were fertilized in vitro and incubated at 16 to 18° C. […] The vegetal surfaces of some of these embryos were irradiated with one or the other sources of UV light within 10 min of fertilization for 20-30 min. […] The embryos were not disturbed, touched or tipped from the moment of fertilization, during UV irradiation or for the duration of development. […] A score of 5 defines a normal dorsal axis, 4 a microcephalic, 3 a cyclopic, 2 an anoptic, 1 an acephalic and 0 an adorsal embryo.
The biological activities of biliverdin and its derivatives were tested by adding each of them to the incubation solution of embryos after the termination of the UV light exposure to either 254 or 366 nm UV light and at selected time periods between T ƒfm=0.4-2.5. Final concentrations of biliverdin ranged from 0.05 to 5 μM in less than 1% ethanol. […] The extent of dorsal axis formation was analyzed by the morphological criteria described above.
Stage 1 embryos were exposed to UV-light source emitting at 366 nm (Mineralight UVSL-58, Ultraviolet Products, Inc., San Gabriel, Calif.) as described and then incubated in the presence of pure candidate DCD or commercially available biliverdin (Sigma-Aldrich, St. Louis, Mo.) at final concentrations from 0.05 to 1.2 μM in less than 1% ethanol. The concentrations were calculated using a molar extinction coefficient of 51,000. […]

[5] = tested on: UV-irradiated Xenopus laevis stage 1 embryos; assay: Rescue of dorsal axis formation in UV-irradiated embryos, scored by dorsal anterior index (DAI); assay type: in vivo
Procedure: as §1
The biological activities of biliverdin and its derivatives were tested by adding each of them to the incubation solution of embryos after the termination of the UV light exposure to either 254 or 366 nm UV light and at selected time periods between T ƒfm=0.4-2.5. Final concentrations of biliverdin ranged from 0.05 to 5 μM in less than 1% ethanol. […] An extinction coefficient of 51,000 was utilized to calculate their concentrations. All petri dishes were covered with aluminum foil to avoid light exposure. The extent of dorsal axis formation was analyzed by the morphological criteria described above.
Stage 1 embryos were exposed to UV-light source emitting at 366 nm (Mineralight UVSL-58, Ultraviolet Products, Inc., San Gabriel, Calif.) as described and then incubated in the presence of pure candidate DCD or commercially available biliverdin (Sigma-Aldrich, St. Louis, Mo.) at final concentrations from 0.05 to 1.2 μM in less than 1% ethanol. The concentrations were calculated using a molar extinction coefficient of 51,000. One group of embryos was not exposed to UV light but was incubated in the presence of 0.5 μM of candidate DCD.

[6] = UV exposed embryos incubated with the intact tetrapyrrole

average DAI of control embryos [4]: 5
Compound: C=CC1=C(C)/C(=C/C2=NC(=C\c3[nH]c(/C=C4\NC(=O)C(C)=C4C=C)c(C)c3CCC(=O)O)/C(CCC(=O)O)=C2C)NC1=O [Biliverdin, biliverdin IXα]
division slower than control [1]: 4.7 times | time until proliferation ceases [1]: six days and 6 days | recovery of proliferative rate ([1]; 12-day observation period): did not recover its proliferative rate at all | activation of the aryl hydrocarbon receptor [2]: binds and is activated | amount that does not affect cellular survival or proliferation (HT29 colon cancer cells; HT29): lower than 10^−7 M | concentration that causes apoptosis (HT29 colon cancer cells; HT29): ≥ 1000 nM | concentration with no effect on survival or proliferation (HT29 colon cancer cells; HT29): below 0.1 μM | Effect on cellular proliferation and viability (HT29 colon cancer cells; HT29, 0.01 μM): None | Effect on cellular proliferation and viability (HT29 colon cancer cells; HT29, 0.1 μM): Proliferative Arrest | Effect on cellular proliferation and viability (HT29 colon cancer cells; HT29, 0.30 μM): Proliferative Arrest | Effect on cellular proliferation and viability (HT29 colon cancer cells; HT29, 0.40 μM): Proliferative Arrest | Effect on cellular proliferation and viability (HT29 colon cancer cells; HT29, 1.00 μM): Apoptosis | effect on proliferation (HT29 colon cancer cells; HT29, 5 μM, associated decrease of cell numbers in first three days): arrests proliferation | time until proliferative arrest (HT29 colon cancer cells; HT29, 0.1 to 0.4 μM): ≤ 72 h | doubling time during exposure (HT29 colon cancer cells; HT29, 4×10^−7 M, next 35 days after arrest): 103 h | time of exposure until proliferation is arrested (HT29 colon cancer cells; HT29, FIG. 9): ≤ 1 days | proliferation rate after resumption, fold less than control (HT29 colon cancer cells; HT29, after end of exposure): 2-3 fold | reduction of three-day cell number increase compared to controls (HT29 colon cancer cells; HT29, treated and released cells): five-fold reduction | increase of cell number in a three-day period (HT29 colon cancer cells; HT29, treated and released cells, control about 15 times): 3.4 times | proliferation rate after resumption, relative to control (HT29 colon cancer cells; HT29, treatment discontinued day 30, resumption twelve days later): 43% | doubling time after removal of biliverdin (HT29 colon cancer cells; HT29, twelve days after removal, control 18 hrs): 41 h | time until proliferation ceases (T-lymphoblast (LT) cells): within one day | time until cell division resumes at nearly the control rate (T-lymphoblast (LT) cells; still exposed): 3 to 4 days | % Change of TAG [3]: 154% | TAG ([3]; control 68): 105 µg/10^6 cells | embryos scored with a DAI between 5-4 ([5]; 254 nm UV light, treated with biliverdin): About 51% | concentration at which plateau of recovery is reached ([5]; 254 or 366 nm UV light, FIG. 3C): 1.2 µM | recovery of dorsal axial structures ([5]; 254 or 366 nm UV-irradiated embryos, μM amounts): recover to form dorsal axial structures | embryos that recover and are scored with 4-5 ([5]; 366 nm UV light, incubated with biliverdin): ~55% | embryos that do not develop dorsal structures, DAI of 0 [5, 6]: 20 to 30% | tadpoles that develop with DAI scores of 5 or 4 [5, 6]: About 55% | degree of recovery of dorsal axis formation relative to oocyte biliverdin ([5]; UV-irradiated embryos, FIG. 2E): comparable | Average DAI score ([5]; embryos irradiated with 254 nm UV light, treated with biliverdin, DAI 5 normal, 0 adorsal): 2.72 | Average DAI score ([5]; embryos irradiated with 366 nm UV light, incubated with biliverdin, total population): 3.08
